ChEMBL document CHEMBL4261593, “Synthesis and antibacterial activity of novel 3-O-arylalkylcarbamoyl-3-O-descladinosyl-9-O-(2-chlorobenzyl)oxime clarithromycin derivatives” (2018)
Values after ≈ are worked out from the molar mass of the structure shown.

How the values were obtained:
Format in all cases: functional
Streptococcus pyogenes [1] = experiment: Antibacterial activity against erythromycin-susceptible Streptococcus pyogenes 1 after 24 hrs by broth dilution assay; conditions: Streptococcus pyogenes, 1, 24 h
Staphylococcus aureus [2] = experiment: Antibacterial activity against erythromycin-susceptible Staphylococcus aureus ATCC 25923 after 24 hrs by broth dilution assay; conditions: ATCC 25923, 24 h
Escherichia coli = experiment: Antibacterial activity against penicillin-susceptible Escherichia coli ATCC 25922 after 24 hrs by broth dilution assay; conditions: ATCC 25922, 24 h
Pseudomonas aeruginosa = experiment: Antibacterial activity against penicillin-susceptible Pseudomonas aeruginosa ATCC 27853 after 24 hrs by broth dilution assay; conditions: ATCC 27853, 24 h
Bacillus subtilis = experiment: Antibacterial activity against penicillin-susceptible Bacillus subtilis ATCC 9372 after 24 hrs by broth dilution assay; conditions: ATCC 9372, 24 h
Staphylococcus aureus [3] = experiment: Antibacterial activity against […] Staphylococcus aureus ATCC 29213 after 24 hrs by broth dilution assay; conditions: ATCC 29213, 24 h
Staphylococcus aureus [4] = experiment: Antibacterial activity against penicillin-resistant Staphylococcus aureus ATCC 31007 after 24 hrs by broth dilution assay; conditions: ATCC 31007, 24 h
Streptococcus pyogenes [5] = experiment: Antibacterial activity against erythromycin-resistant Streptococcus pyogenes 2 after 24 hrs by broth dilution assay; conditions: Streptococcus pyogenes, 2, 24 h
Streptococcus pneumoniae [6] = experiment: Antibacterial activity against erythromycin-resistant Streptococcus pneumoniae A22072 expressing mefA gene after 24 hrs by broth dilution assay; conditions: A22072, 24 h
Streptococcus pneumoniae [7] = experiment: Antibacterial activity against erythromycin-resistant Streptococcus pneumoniae B1 expressing ermB gene after 24 hrs by broth dilution assay; conditions: B1, 24 h
Streptococcus pneumoniae [8] = experiment: Antibacterial activity against erythromycin-resistant Streptococcus pneumoniae AB11 expressing ermB and mefA genes after 24 hrs by broth dilution assay; conditions: AB11, 24 h
Staphylococcus aureus [9] = experiment: Potency index, ratio of CAM MIC to compound MIC for antibacterial activity against penicillin-resistant Staphylococcus aureus ATCC 31007
Staphylococcus aureus [10] = experiment: Potency index, ratio of AZM MIC to compound MIC for antibacterial activity against penicillin-resistant Staphylococcus aureus ATCC 31007
Streptococcus pyogenes [11] = experiment: Potency index, ratio of CAM MIC to compound MIC for antibacterial activity against erythromycin-resistant Streptococcus pyogenes 2
Streptococcus pyogenes [12] = experiment: Potency index, ratio of AZM MIC to compound MIC for antibacterial activity against erythromycin-resistant Streptococcus pyogenes 2
Streptococcus pneumoniae [13] = experiment: Potency index, ratio of CAM MIC to compound MIC for antibacterial activity against erythromycin-resistant Streptococcus pneumoniae A22072
Streptococcus pneumoniae [14] = experiment: Potency index, ratio of AZM MIC to compound MIC for antibacterial activity against erythromycin-resistant Streptococcus pneumoniae A22072

Row | SMILES | MIC (Streptococcus pyogenes [1]) | MIC (Staphylococcus aureus [2]) | MIC (Escherichia coli) | MIC (Pseudomonas aeruginosa) | MIC (Bacillus subtilis) | MIC (Staphylococcus aureus [3]) | MIC (Staphylococcus aureus [4]) | MIC (Streptococcus pyogenes [5]) | MIC (Streptococcus pneumoniae [6]) | MIC (Streptococcus pneumoniae [7]) | MIC (Streptococcus pneumoniae [8]) | Ratio (Staphylococcus aureus [9]) | Ratio (Staphylococcus aureus [10]) | Ratio (Streptococcus pyogenes [11]) | Ratio (Streptococcus pyogenes [12]) | Ratio (Streptococcus pneumoniae [13]) | Ratio (Streptococcus pneumoniae [14])
1 | CC[C@H]1OC(=O)[C@H](C)[C@@H](OC(=O)NCc2ccccc2)[C@H](C)[C@@H](O[C@@H]2O[C@H](C)C[C@H](N(C)C)[C@H]2O)[C@](C)(OC)C[C@@H](C)/C(=N/OCc2ccccc2Cl)[C@H](C)[C@@H](O)[C@]1(C)O | 2 µg/mL (≈ 2.32 µM) | 8 µg/mL (≈ 9.28 µM) | 128 µg/mL (≈ 148 µM) | 128 µg/mL (≈ 148 µM) | 2 µg/mL (≈ 2.32 µM) | 128 µg/mL (≈ 148 µM) | 4 µg/mL (≈ 4.64 µM) | 16 µg/mL (≈ 18.6 µM) | 0.5 µg/mL (≈ 0.58 µM) | 128 µg/mL (≈ 148 µM) | 128 µg/mL (≈ 148 µM) | 64 | 64 | – | – | – | –
2 | CC[C@H]1OC(=O)[C@H](C)[C@@H](OC(=O)NCc2ccc(Cl)cc2)[C@H](C)[C@@H](O[C@@H]2O[C@H](C)C[C@H](N(C)C)[C@H]2O)[C@](C)(OC)C[C@@H](C)/C(=N/OCc2ccccc2Cl)[C@H](C)[C@@H](O)[C@]1(C)O | 2 µg/mL (≈ 2.23 µM) | 8 µg/mL (≈ 8.92 µM) | 128 µg/mL (≈ 143 µM) | 128 µg/mL (≈ 143 µM) | 2 µg/mL (≈ 2.23 µM) | 128 µg/mL (≈ 143 µM) | 4 µg/mL (≈ 4.46 µM) | 8 µg/mL (≈ 8.92 µM) | 0.5 µg/mL (≈ 0.557 µM) | 128 µg/mL (≈ 143 µM) | 128 µg/mL (≈ 143 µM) | 64 | 64 | 32 | 32 | – | –
3 | CCCCNC(=O)O[C@H]1[C@H](C)[C@@H](O[C@@H]2O[C@H](C)C[C@H](N(C)C)[C@H]2O)[C@](C)(OC)C[C@@H](C)/C(=N/OCc2ccccc2Cl)[C@H](C)[C@@H](O)[C@](C)(O)[C@@H](CC)OC(=O)[C@@H]1C | 1 µg/mL (≈ 1.21 µM) | 4 µg/mL (≈ 4.83 µM) | 128 µg/mL (≈ 154 µM) | 128 µg/mL (≈ 154 µM) | 2 µg/mL (≈ 2.41 µM) | 128 µg/mL (≈ 154 µM) | 8 µg/mL (≈ 9.66 µM) | 8 µg/mL (≈ 9.66 µM) | 0.5 µg/mL (≈ 0.604 µM) | 128 µg/mL (≈ 154 µM) | 128 µg/mL (≈ 154 µM) | – | – | 32 | 32 | – | –
4 | CC[C@H]1OC(=O)[C@H](C)[C@@H](OC(=O)NCCc2ccc(O)cc2)[C@H](C)[C@@H](O[C@@H]2O[C@H](C)C[C@H](N(C)C)[C@H]2O)[C@](C)(OC)C[C@@H](C)/C(=N/OCc2ccccc2Cl)[C@H](C)[C@@H](O)[C@]1(C)O | 0.5 µg/mL (≈ 0.56 µM) | 4 µg/mL (≈ 4.48 µM) | 128 µg/mL (≈ 143 µM) | 128 µg/mL (≈ 143 µM) | 1 µg/mL (≈ 1.12 µM) | 128 µg/mL (≈ 143 µM) | 4 µg/mL (≈ 4.48 µM) | 8 µg/mL (≈ 8.96 µM) | 0.25 µg/mL (≈ 0.28 µM) | 128 µg/mL (≈ 143 µM) | 128 µg/mL (≈ 143 µM) | – | – | 32 | 32 | – | –
5 | CC[C@H]1OC(=O)[C@H](C)[C@@H](OC(=O)NC2CC2)[C@H](C)[C@@H](O[C@@H]2O[C@H](C)C[C@H](N(C)C)[C@H]2O)[C@](C)(OC)C[C@@H](C)/C(=N/OCc2ccccc2Cl)[C@H](C)[C@@H](O)[C@]1(C)O | 1 µg/mL (≈ 1.23 µM) | 8 µg/mL (≈ 9.85 µM) | 128 µg/mL (≈ 158 µM) | 128 µg/mL (≈ 158 µM) | 4 µg/mL (≈ 4.92 µM) | 128 µg/mL (≈ 158 µM) | 16 µg/mL (≈ 19.7 µM) | 16 µg/mL (≈ 19.7 µM) | 0.125 µg/mL (≈ 0.154 µM) | 128 µg/mL (≈ 158 µM) | 128 µg/mL (≈ 158 µM) | – | – | – | – | 16 | 32
